One data set relates to Blastocystis cysts. The experiment in a line: organism not typed. The class given is cell-based. The conditions noted are these: read-out: Reduction in the percentage of viability of Blastocystis cysts. From the text: Suspensions of cultured Blastocystis from symptomatic patients were used for evaluating biological activities of the formulated nanocomposites. Blastocystis were obtained from the El-Badry Lab where ethically approved by the Deanship of Scientific Research and Postgraduate Studies of Imam Abdulrahman Bin Faisal University under the Institutional Review Board (IRB) number (IRB #2021-01-009).
Blastocystis were sub-cultured using fresh Jones' medium enriched with 10% horse serum according to Jones to get rid of stool debris [Jones, W. Ann Trop Med Parasitol., 1946, 40, 130-140; & Zman, V., and Khan, K. Southt Asian J Trop Med Public Health, 1994, 25, 792-793, each of which is incorporated herein by reference in its entirety]. Cultures with vacuolar forms of Blastocystis greater than 10^6 were used for evaluating biological activities of the formulated nanocomposites.
Suspension of cultured Blastocytis cysts, in logarithmic growth phase of 10^6/ml, were inoculated in sets of culture tubes with Jones' culture media. Haemocytometer counting chamber was used to count the number of Blastocystis cysts. The experiments contained 3 groups as follows:
Group 1 (G1): parasite (negative, not treated) control group, containing only cultured cysts of Blastocystis.
Group 2 (G2): drug (positive) control, containing cultured parasites exposed to 500 μg/ml metronidazole as reference anti-Blastocystis therapy.
Group 3 (G3): nanocomposites tested group, containing cultured parasites exposed to the three nanocomposites. G3 was further divided into subgroups to test three nanocomposites (G3A, G3B and […]) at different concentrations (G3i-iv). Parasites were exposed to increasing concentrations of the three nanocomposites of 100 μg/ml (G3i) 200 μg/ml (G3ii), 500 μg/ml (G3iii) and 800 μg/ml (G3iv) (W/V). All tubes were incubated at 37° C. in humidified CO2 for 48 hours.
All tested nanocomposites for each concentration were prepared by diluting stock solution in appropriate amount of PBS. The volume of each of the experiment tubes was brought to 1 ml with Blastocystis 10^6/ml concentration. All experiments were performed in triplicate [El-Sayed, S. H., et. al., Res J Parasitol., 2017, 12,2, 33-44; Méabed, E. M. H., Phytomedicine, 2018, 1, 43, 158-163; & Mokhtar, A. B., et. al., Int J Environ Res Public Health, 2019, 16, 1555, each of which is incorporated herein by reference in its entirety].
The number of Blastocystis cysts from all cultured tubes included in the experiment were counted under the microscope in haemocytometer counting chamber, and cultured Blastocystis cysts were tested for their viability using Trypan blue solution (0.4%). […] The dead Blastocystis cysts were further confirmed by microscopic detection of cell wall disruption and destruction of internal structures. All cultured tubes were examined for percentage of reduction in growth of Blastocystis cysts each hour for 5 hours then after 24 hours. The minimal lethal concentration (MLC) was determined to be the concentration at which no Blastocystis cysts were observed.

Data set [1] can be described thus: Drug release study (dialysis membrane, PBS, UV-visible spectroscopy). Type of data set: physicochemical. The conditions noted are these: within 12 h, absence of nanocarrier, PBS pH 5.6, 37° C. The method, then: Prior to the study, the dialysis membrane (12 KDa, Sigma Aldrich) was activated and then 15 mg of nanoformulation was dispersed in 25 ml of PBS solution (pH 5.6 and 7.4). The release of antioxidants are studied at 37° C. At regular time interval, 5 ml of solution was withdrawn, and release of antioxidants were measured using UV-visible spectroscopy. The withdrawn solution (5 ml) was replaced with equal volume of fresh PBS solution.
Various concentration of aliquots 5, 10, 15, 20, 25 and 30 μg/ml was prepared with makeup volume to 10 ml using release medium PBS solution (pH=5.6 or 7.4) and calibration curve established against blank at maximum absorption wavelength λmax of 428 nm and 307 nm, respectively. […] The release study was repeated in triplicates.

The structures appear in SMILES notation. Like-named read-outs stand apart in the source and are kept apart here.

Regarding `Cc1ncc([N+](=O)[O-])n1CCO` [Metronidazole, metronidazole], the inhibition at 500 µg/mL in the data set on Blastocystis cysts (1 h) was found to be 81.7%; with Blastocystis cysts (2 h) it was 87.7%; in the data set with Blastocystis cysts (3 h), 91.3%; in the data set with Blastocystis cysts (4 h), 96.3%; with Blastocystis cysts (5 h), 98.7%; in the data set on Blastocystis cysts (24 h) it was 99.3%.

`Oc1ccc(/C=C/c2cc(O)cc(O)c2)cc1` [resveratrol, Resveratrol]: the “maximum release of resveratrol (burst release)” value in data set [1] is 43%.

Values taken from US12109315B2, “Method for treating Blastocystis infection” (Imam Abdulrahman Bin Faisal University, priority 2022, dated 2024).
